# Test results published in article PMC7377239, “Cardiovascular Effects of Polychlorinated Biphenyls and Their Major Metabolites” (Environmental Health Perspectives, 2020).
# Structures can show the parent of a compound that is named as a salt. Where two headings read alike, the source gives them in different places.
# Tested on: HUVECs
# Assay: Tube formation (tubulogenesis) assay in HUVECs, 18 h
# Format: cell-based, human
# Conditions: Homo sapiens, HUVEC, 18 h
# Protocol: Similar to the cultivation of iCell®-endothelial cells, HUVEC maintenance and experimentation are detailed elsewhere ([Iwata et al. 2017]). Briefly, HUVECs were thawed, seeded, and grown in T75 tissue culture flasks in Medium 199 with EGM™-2 BulletKits™. HUVECs were incubated at regular cell culture conditions, 37°C and 5% CO2 , and passaged every 2–3 d using TrypLE™ Express. To ensure adequate endothelial function, experiments were performed with cells between passages 1 and 5.
# Tube formation assays were performed on Geltrex™ LDEV-free reduced growth factor basement membrane using both iCell®-endothelial cells and HUVECs in 384-well format exactly as detailed in Iwata et al. ([2017]). Negative controls included media-only and vehicle control (i.e., 0.5% vol/vol DMSO in cell culture media) wells. Positive assay controls were consistent with previously published reports ([Iwata et al. 2017]) and included TAB ( 50μM ) as a cytotoxic control, and nocodazole ( 0.01–1μM ), suramin ( 0.5–50μM ), histamine ( 0.1–100μM ), and chloroquine ( 1–500μM ) as chemicals associated with specific effects on ECs. Each test chemical was screened in triplicate for each concentration. Briefly, for iCell®-endothelial cells, starvation media consisted of VascuLife® basal medium with 4 mM L-glutamine LifeFactor and 0.1% iCell®-endothelial cells medium supplement. To counter dilution effects, a 2× concentration of the HUVEC maintenance medium supplemented with additional VEGF was created (EGM™-2 BulletKits™ at 2× concentration; also the VEGF component was replaced with 12.5 ng/mL VEGF). Geltrex™ LDEV-free reduced growth factor basement membrane was thawed overnight and dispensed into 384-well plates ( 10μL/well ) with tapping and rotating to evenly coat. The plates were incubated for 1 h in a cell culture incubator at 37°C and 5% CO2 . A 2× PCB plate (containing all of the PCBs and metabolites in dose–response) was prepared in basal media and added, 25μL per well, to the Geltrex™ coated plates. On separate plates, cells were seeded 7,500 (iPSC- ECs) or 3,500 (HUVEC) cells/well. Cells were exposed to chemicals overnight at 37°C and 5% CO2 and stained with 3× concentration of calcein AM ( 25μL /well, 6μmol/L ) for 15 min before imaging. Images were captured at 4× magnification with the FITC filter (calcein AM). Images were analyzed with the angiogenesis module software within MetaXpress™ (Molecular Devices).
# Phenotypic responses were quantitatively assessed using concentration–response modeling as detailed elsewhere ([Sirenko et al. 2017]). Briefly, phenotypic readouts were normalized to vehicle controls and fit to a four-parameter logistic model in R studio software (version 3.1.1; R Development Core Team). Following EPA guidance on dose–response modeling, a cutoff of one standard deviation across means of vehicle control (i.e., 0.5% vol/vol DMSO in cell culture media) wells was applied to determine the point-of-departure (POD) values ([U.S. EPA 2012]). In the absence of a concentration–response, the highest tested concentration (i.e., 100μM ) was assigned as “no observable adverse effect level.” The concentration–response assessment R script, as well as templates for vehicle and concentration–response data, are available as a supplement to Sirenko et al. ([2017]). The ability of physicochemical properties to predict differences in PODs were evaluated by multiregression and mixed-effects modeling using R.
# [1] = tube formation mtl, read-out: POD huvec.mtl.18hr
# [2] = tube formation tlps, read-out: POD huvec.tlps.18hr
# [3] = tube formation tta, read-out: POD huvec.tta.18hr
# [4] = tube formation ttl, read-out: POD huvec.ttl.18hr
smiles,measurement,setting,value
Clc1cc(Cl)c(-c2cc(Cl)c(Cl)cc2Cl)cc1Cl [PCB153],minimal effective concentration,"HUVECs tube formation, MAX 100.00, read-out: huvec.mtl.18hr POD",19.8 µM
same,minimal effective concentration,"HUVECs tube formation, MAX 100.00, read-out: huvec.tlps.18hr POD",61.8 µM
same,minimal effective concentration,"HUVECs tube formation, MAX 100.00, read-out: huvec.tta.18hr POD",8.87 µM
same,minimal effective concentration,"HUVECs tube formation, MAX 100.00, read-out: huvec.ttl.18hr POD",0.13 µM
same,activity at 0.01 µM,"HUVECs tube formation, concentration 0.01 µM, 0.00 µM = 100.00, read-out: huvec.mtl.18hr",88.3%
same,activity at 0.01 µM,"HUVECs tube formation, concentration 0.01 µM, 0.00 µM = 100.00, read-out: huvec.tlps.18hr",103%
same,activity at 0.01 µM,"HUVECs tube formation, concentration 0.01 µM, 0.00 µM = 100.00, read-out: huvec.tta.18hr",72.1%
same,activity at 0.01 µM,"HUVECs tube formation, concentration 0.01 µM, 0.00 µM = 100.00, read-out: huvec.ttl.18hr",66.9%
same,activity at 0.1 µM,"HUVECs tube formation, concentration 0.10 µM, 0.00 µM = 100.00, read-out: huvec.mtl.18hr",95.5%
same,activity at 0.1 µM,"HUVECs tube formation, concentration 0.10 µM, 0.00 µM = 100.00, read-out: huvec.tlps.18hr",80.3%
same,activity at 0.1 µM,"HUVECs tube formation, concentration 0.10 µM, 0.00 µM = 100.00, read-out: huvec.tta.18hr",103%
same,activity at 0.1 µM,"HUVECs tube formation, concentration 0.10 µM, 0.00 µM = 100.00, read-out: huvec.ttl.18hr",95.6%
same,activity at 1 µM,"HUVECs tube formation, concentration 1.00 µM, 0.00 µM = 100.00, read-out: huvec.mtl.18hr",88.7%
same,activity at 1 µM,"HUVECs tube formation, concentration 1.00 µM, 0.00 µM = 100.00, read-out: huvec.tlps.18hr",89.4%
same,activity at 1 µM,"HUVECs tube formation, concentration 1.00 µM, 0.00 µM = 100.00, read-out: huvec.tta.18hr",73.7%
same,activity at 1 µM,"HUVECs tube formation, concentration 1.00 µM, 0.00 µM = 100.00, read-out: huvec.ttl.18hr",66.3%
same,activity at 10 µM,"HUVECs tube formation, concentration 10.00 µM, 0.00 µM = 100.00, read-out: huvec.mtl.18hr",95.2%
same,activity at 10 µM,"HUVECs tube formation, concentration 10.00 µM, 0.00 µM = 100.00, read-out: huvec.tlps.18hr",107%
same,activity at 10 µM,"HUVECs tube formation, concentration 10.00 µM, 0.00 µM = 100.00, read-out: huvec.tta.18hr",115%
same,activity at 10 µM,"HUVECs tube formation, concentration 10.00 µM, 0.00 µM = 100.00, read-out: huvec.ttl.18hr",106%
same,activity at 100 µM,"HUVECs tube formation, concentration 100.00 µM, 0.00 µM = 100.00, read-out: huvec.mtl.18hr",65.2%
same,activity at 100 µM,"HUVECs tube formation, concentration 100.00 µM, 0.00 µM = 100.00, read-out: huvec.tlps.18hr",61%
same,activity at 100 µM,"HUVECs tube formation, concentration 100.00 µM, 0.00 µM = 100.00, read-out: huvec.tta.18hr",54.1%
same,activity at 100 µM,"HUVECs tube formation, concentration 100.00 µM, 0.00 µM = 100.00, read-out: huvec.ttl.18hr",48%
O=S(=O)(O)Oc1cc(Cl)c(-c2cc(Cl)ccc2Cl)cc1Cl [4-PCB 52 sulfate],minimal effective concentration,[1],14.6 µM
same,minimal effective concentration,[2],10.1 µM
same,minimal effective concentration,[3],100 µM
same,minimal effective concentration,[4],100 µM
Oc1ccc(-c2cccc(Cl)c2)cc1Cl [4-OH PCB11],activity at 0.01 µM,"HUVECs, 0.01 µM, 0.00 µM = 100.00, read-out: huvec.mtl.18hr",113%
same,activity at 0.01 µM,"HUVECs, 0.01 µM, 0.00 µM = 100.00, read-out: huvec.tlps.18hr",135%
same,activity at 0.01 µM,"HUVECs, 0.01 µM, 0.00 µM = 100.00, read-out: huvec.tta.18hr",121%
same,activity at 0.01 µM,"HUVECs, 0.01 µM, 0.00 µM = 100.00, read-out: huvec.ttl.18hr",115%
same,activity at 0.1 µM,"HUVECs, 0.10 µM, 0.00 µM = 100.00, read-out: huvec.mtl.18hr",115%
same,activity at 0.1 µM,"HUVECs, 0.10 µM, 0.00 µM = 100.00, read-out: huvec.tlps.18hr",127%
same,activity at 0.1 µM,"HUVECs, 0.10 µM, 0.00 µM = 100.00, read-out: huvec.tta.18hr",133%
same,activity at 0.1 µM,"HUVECs, 0.10 µM, 0.00 µM = 100.00, read-out: huvec.ttl.18hr",125%
same,activity at 1 µM,"HUVECs, 1.00 µM, 0.00 µM = 100.00, read-out: huvec.mtl.18hr",112%
same,activity at 1 µM,"HUVECs, 1.00 µM, 0.00 µM = 100.00, read-out: huvec.tlps.18hr",149%
same,activity at 1 µM,"HUVECs, 1.00 µM, 0.00 µM = 100.00, read-out: huvec.tta.18hr",110%
same,activity at 1 µM,"HUVECs, 1.00 µM, 0.00 µM = 100.00, read-out: huvec.ttl.18hr",107%
same,activity at 10 µM,"HUVECs, 10.00 µM, 0.00 µM = 100.00, read-out: huvec.mtl.18hr",77.3%
same,activity at 10 µM,"HUVECs, 10.00 µM, 0.00 µM = 100.00, read-out: huvec.tlps.18hr",94.8%
same,activity at 10 µM,"HUVECs, 10.00 µM, 0.00 µM = 100.00, read-out: huvec.tta.18hr",89.2%
same,activity at 10 µM,"HUVECs, 10.00 µM, 0.00 µM = 100.00, read-out: huvec.ttl.18hr",81.5%
same,activity at 100 µM,"HUVECs, 100.00 µM, 0.00 µM = 100.00, read-out: huvec.mtl.18hr",62.9%
same,activity at 100 µM,"HUVECs, 100.00 µM, 0.00 µM = 100.00, read-out: huvec.tlps.18hr",61.6%
same,activity at 100 µM,"HUVECs, 100.00 µM, 0.00 µM = 100.00, read-out: huvec.tta.18hr",84.3%
same,activity at 100 µM,"HUVECs, 100.00 µM, 0.00 µM = 100.00, read-out: huvec.ttl.18hr",85.2%
same,minimal effective concentration,"HUVECs, top concentration 100.00 µM, read-out: huvec.mtl.18hr POD",7.09 µM
same,minimal effective concentration,"HUVECs, top concentration 100.00 µM, read-out: huvec.tlps.18hr POD",35.3 µM
same,minimal effective concentration,"HUVECs, top concentration 100.00 µM, read-out: huvec.tta.18hr POD",100 µM
same,minimal effective concentration,"HUVECs, top concentration 100.00 µM, read-out: huvec.ttl.18hr POD",4.15 µM
O=S(=O)(O)Oc1cccc(-c2ccc(Cl)cc2)c1 [3'-PCB 3 sulfate],minimal effective concentration,[1],15.5 µM
same,minimal effective concentration,[2],100 µM
same,minimal effective concentration,[3],100 µM
same,minimal effective concentration,[4],100 µM
Oc1cccc(-c2ccc(Cl)cc2)c1 [3'-OH-PCB 3],minimal effective concentration,[1],1.14 µM
same,minimal effective concentration,[2],1.01 µM
same,minimal effective concentration,[3],3.65 µM
same,minimal effective concentration,[4],3.26 µM
